According to ChEMBL document CHEMBL1201862, “PubChem BioAssay data set” (2004):
Calls of active or inactive are those of the source.

Tests used:
[1] = molecular target: Delta-type opioid receptor (Homo sapiens, UniProt P41143); assay: Counterscreen for agonists of heterodimerization of the mu 1 (OPRM1) and delta 1 (OPRD1) opioid receptors: Luminescence-based cell-based high throughput dose response assay to identify agonists of OPRD1 homodimerization. [Related pubchem assays (depositor defined):AID504326, AID504355, AID504692, AID504904, AID504905]; format: functional
[2] = molecular target: Mu-type opioid receptor (Homo sapiens, UniProt P35372); assay: Counterscreen for agonists of heterodimerization of the mu 1 (OPRM1) and delta 1 (OPRD1) opioid receptors: Luminescence-based cell-based high throughput dose response assay to identify agonists of OPRM1 homodimerization.; format: functional;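 note: U2OS cells expressing OPRM1 and beta-arrestin as split beta-galactosidase partners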
[3] = molecular target: 5-hydroxytryptamine receptor 5A (Homo sapiens, UniProt P47898); assay: Counterscreen for agonists of OPRM1-OPRD1 heterodimerization: luminescence-based cell-based high throughput dose response assay to identify agonists of 5-hydroxytryptamine (serotonin) 5A receptor (HTR5A). [Related pubchem assays (depositor defined):AID504326, AID504355, AID504692, AID504904, AID504905]; format: functional
5-hydroxytryptamine receptor 5A, sequence (P47898 whole entry): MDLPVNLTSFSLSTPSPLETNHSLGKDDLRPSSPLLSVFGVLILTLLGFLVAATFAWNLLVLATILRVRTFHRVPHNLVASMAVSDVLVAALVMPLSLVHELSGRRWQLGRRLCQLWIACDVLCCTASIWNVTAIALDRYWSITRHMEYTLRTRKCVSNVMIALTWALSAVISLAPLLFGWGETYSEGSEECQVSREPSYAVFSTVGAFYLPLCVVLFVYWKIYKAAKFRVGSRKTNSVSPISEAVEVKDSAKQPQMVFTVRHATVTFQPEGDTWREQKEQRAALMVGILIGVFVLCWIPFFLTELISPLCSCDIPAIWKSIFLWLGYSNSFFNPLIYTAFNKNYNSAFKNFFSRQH

[4] = NIH-3T3 fibroblast cytotoxicity, dose response, cytotoxicity control, cell-based, fluorescence, Alamar Blue, secondary assay (AID 2327); format: functional;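 note: NIH-3T3 mouse fibroblasts cultured with fluconazole at 8 µg/mL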
[5] = molecular target: Peroxisome proliferator-activated receptor gamma/Nuclear receptor coactivator 1 (Homo sapiens, UniProt P37231); assay: (§1) TR-FRET dose response biochemical High Throughput Screening assay for agonists of the steroid receptor coactivator 1 (SRC-1) recruitment by the peroxisome proliferator-activated receptor gamma (PPAR gamma): non-selective agonists. [Related pubchem assays (depositor defined):AID1300, AID1808, AID504735, AID631]; format: protein assay
[6] = molecular target: Peroxisome proliferator-activated receptor gamma/Nuclear receptor coactivator 3 (Homo sapiens, UniProt P37231); assay: as §1, with “3 (SRC-3)” for “1 (SRC-1)”, “assays: 1301 (Confirmation screen.), 1048 (Primary screen.)]” for “assays (depositor defined):AID1300, AID1808, AID504735, AID631]”; format: functional
Peroxisome proliferator-activated receptor gamma/Nuclear receptor coactivator 3, sequence (P37231 whole entry): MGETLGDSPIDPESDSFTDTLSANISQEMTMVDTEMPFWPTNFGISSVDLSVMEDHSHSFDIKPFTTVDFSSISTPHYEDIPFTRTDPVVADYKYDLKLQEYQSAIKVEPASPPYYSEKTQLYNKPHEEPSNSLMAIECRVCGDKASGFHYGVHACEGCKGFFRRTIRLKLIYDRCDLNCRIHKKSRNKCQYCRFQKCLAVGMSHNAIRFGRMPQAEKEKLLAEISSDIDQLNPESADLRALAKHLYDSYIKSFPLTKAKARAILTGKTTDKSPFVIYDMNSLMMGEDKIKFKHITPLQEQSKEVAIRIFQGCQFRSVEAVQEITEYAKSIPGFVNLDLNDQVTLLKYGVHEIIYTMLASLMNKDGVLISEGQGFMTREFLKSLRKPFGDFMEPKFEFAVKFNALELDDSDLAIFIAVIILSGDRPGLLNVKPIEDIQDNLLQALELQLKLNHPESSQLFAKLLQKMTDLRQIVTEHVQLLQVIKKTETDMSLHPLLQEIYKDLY
Peroxisome proliferator-activated receptor gamma/Nuclear receptor coactivator 3, sequence (Q9Y6Q9 whole entry, further chain): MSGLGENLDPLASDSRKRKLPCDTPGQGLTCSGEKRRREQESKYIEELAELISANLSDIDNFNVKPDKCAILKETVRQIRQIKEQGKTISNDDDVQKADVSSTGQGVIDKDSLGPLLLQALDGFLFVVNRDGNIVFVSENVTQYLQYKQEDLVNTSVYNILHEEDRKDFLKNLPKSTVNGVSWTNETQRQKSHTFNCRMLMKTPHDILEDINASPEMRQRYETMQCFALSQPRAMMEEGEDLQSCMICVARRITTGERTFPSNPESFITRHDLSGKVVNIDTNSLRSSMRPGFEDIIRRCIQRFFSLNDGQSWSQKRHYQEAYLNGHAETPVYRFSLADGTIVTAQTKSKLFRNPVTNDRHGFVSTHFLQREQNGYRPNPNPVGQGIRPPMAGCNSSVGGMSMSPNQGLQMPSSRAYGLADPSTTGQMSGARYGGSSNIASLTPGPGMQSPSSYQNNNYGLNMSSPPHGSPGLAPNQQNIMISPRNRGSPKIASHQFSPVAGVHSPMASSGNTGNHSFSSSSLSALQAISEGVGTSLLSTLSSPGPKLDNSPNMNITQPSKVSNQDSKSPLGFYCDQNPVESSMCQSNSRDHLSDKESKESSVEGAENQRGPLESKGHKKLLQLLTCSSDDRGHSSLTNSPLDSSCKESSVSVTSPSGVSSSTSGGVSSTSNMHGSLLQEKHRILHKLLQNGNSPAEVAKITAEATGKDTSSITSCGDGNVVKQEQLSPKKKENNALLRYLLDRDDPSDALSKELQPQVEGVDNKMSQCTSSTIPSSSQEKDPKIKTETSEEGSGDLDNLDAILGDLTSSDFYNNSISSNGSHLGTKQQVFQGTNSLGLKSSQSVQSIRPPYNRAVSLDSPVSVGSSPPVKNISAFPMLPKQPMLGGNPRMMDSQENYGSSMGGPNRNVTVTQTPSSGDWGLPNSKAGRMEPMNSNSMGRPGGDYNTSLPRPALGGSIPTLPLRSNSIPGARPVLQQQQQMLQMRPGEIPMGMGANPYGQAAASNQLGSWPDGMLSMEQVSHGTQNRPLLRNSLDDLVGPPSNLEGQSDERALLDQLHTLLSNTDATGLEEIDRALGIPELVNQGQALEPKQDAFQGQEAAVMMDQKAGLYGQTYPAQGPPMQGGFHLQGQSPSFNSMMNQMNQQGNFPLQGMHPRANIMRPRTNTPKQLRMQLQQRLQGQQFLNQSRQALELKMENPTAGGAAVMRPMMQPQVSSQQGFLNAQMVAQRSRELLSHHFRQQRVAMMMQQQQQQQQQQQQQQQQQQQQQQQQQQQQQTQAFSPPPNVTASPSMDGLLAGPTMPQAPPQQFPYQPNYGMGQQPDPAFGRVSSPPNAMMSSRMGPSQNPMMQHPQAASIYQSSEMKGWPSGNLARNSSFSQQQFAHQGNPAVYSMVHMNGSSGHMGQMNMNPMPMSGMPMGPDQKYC

[7] = C. albicans growth with fluconazole, confirmation, fluorescence, retest (AID 2467); format: functional, cell-based
[8] = molecular target: T1, Serine/threonine-protein phosphatase (Candida dubliniensis (strain CD36 / CBS 7987 / NCPF 3949 / NRRLY-17841) (Yeast), UniProt B9W6M3); assay: calcineurin pathway inhibitors in yeast reporter, dose response, S. cerevisiae, CDRE-lacZ, luminescence, secondary (AID 2388); format: functional, cell-based;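 note: yeast reporter cells carrying a calcineurin-responsive lacZ construct stimulated with calcium chloride; luminescent beta-galactosidase reporter signal in whole cells rather than isolated phosphatase activity; potency for inhibition where a drop in reporter signal means calcineurin blockade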
T1 sequence (B9W6M3 whole entry): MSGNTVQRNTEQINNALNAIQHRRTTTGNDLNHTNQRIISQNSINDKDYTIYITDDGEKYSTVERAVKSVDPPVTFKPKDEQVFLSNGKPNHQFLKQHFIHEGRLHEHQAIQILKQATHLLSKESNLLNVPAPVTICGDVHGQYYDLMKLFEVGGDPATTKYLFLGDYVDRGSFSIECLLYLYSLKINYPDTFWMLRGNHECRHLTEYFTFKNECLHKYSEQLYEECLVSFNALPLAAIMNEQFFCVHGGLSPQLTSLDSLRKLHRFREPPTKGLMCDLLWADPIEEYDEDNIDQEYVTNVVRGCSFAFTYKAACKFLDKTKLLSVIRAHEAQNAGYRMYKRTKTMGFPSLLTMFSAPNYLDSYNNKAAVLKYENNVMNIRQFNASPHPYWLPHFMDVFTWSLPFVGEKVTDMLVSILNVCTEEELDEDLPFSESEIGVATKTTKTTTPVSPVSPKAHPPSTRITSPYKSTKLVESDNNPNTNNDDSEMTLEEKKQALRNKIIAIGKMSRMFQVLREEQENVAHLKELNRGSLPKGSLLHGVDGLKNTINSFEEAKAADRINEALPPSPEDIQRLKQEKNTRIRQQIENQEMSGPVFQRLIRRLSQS

[9] = molecular target: Peroxisome proliferator-activated receptor gamma/Nuclear receptor coactivator 2 (Homo sapiens, UniProt P37231); assay: TR-FRET dose response biochemical High Throughput Screening assay for agonists of the steroid receptor coactivator 2 (SRC-2) recruitment by the peroxisome proliferator-activated receptor gamma (PPAR gamma): non-selective agonists. [Related pubchem assays: 1297, 1032 ]; format: functional
Peroxisome proliferator-activated receptor gamma/Nuclear receptor coactivator 2, sequence (P37231 whole entry): as the sequence (P37231 whole entry) above
Peroxisome proliferator-activated receptor gamma/Nuclear receptor coactivator 2, sequence (Q15596 whole entry, further chain): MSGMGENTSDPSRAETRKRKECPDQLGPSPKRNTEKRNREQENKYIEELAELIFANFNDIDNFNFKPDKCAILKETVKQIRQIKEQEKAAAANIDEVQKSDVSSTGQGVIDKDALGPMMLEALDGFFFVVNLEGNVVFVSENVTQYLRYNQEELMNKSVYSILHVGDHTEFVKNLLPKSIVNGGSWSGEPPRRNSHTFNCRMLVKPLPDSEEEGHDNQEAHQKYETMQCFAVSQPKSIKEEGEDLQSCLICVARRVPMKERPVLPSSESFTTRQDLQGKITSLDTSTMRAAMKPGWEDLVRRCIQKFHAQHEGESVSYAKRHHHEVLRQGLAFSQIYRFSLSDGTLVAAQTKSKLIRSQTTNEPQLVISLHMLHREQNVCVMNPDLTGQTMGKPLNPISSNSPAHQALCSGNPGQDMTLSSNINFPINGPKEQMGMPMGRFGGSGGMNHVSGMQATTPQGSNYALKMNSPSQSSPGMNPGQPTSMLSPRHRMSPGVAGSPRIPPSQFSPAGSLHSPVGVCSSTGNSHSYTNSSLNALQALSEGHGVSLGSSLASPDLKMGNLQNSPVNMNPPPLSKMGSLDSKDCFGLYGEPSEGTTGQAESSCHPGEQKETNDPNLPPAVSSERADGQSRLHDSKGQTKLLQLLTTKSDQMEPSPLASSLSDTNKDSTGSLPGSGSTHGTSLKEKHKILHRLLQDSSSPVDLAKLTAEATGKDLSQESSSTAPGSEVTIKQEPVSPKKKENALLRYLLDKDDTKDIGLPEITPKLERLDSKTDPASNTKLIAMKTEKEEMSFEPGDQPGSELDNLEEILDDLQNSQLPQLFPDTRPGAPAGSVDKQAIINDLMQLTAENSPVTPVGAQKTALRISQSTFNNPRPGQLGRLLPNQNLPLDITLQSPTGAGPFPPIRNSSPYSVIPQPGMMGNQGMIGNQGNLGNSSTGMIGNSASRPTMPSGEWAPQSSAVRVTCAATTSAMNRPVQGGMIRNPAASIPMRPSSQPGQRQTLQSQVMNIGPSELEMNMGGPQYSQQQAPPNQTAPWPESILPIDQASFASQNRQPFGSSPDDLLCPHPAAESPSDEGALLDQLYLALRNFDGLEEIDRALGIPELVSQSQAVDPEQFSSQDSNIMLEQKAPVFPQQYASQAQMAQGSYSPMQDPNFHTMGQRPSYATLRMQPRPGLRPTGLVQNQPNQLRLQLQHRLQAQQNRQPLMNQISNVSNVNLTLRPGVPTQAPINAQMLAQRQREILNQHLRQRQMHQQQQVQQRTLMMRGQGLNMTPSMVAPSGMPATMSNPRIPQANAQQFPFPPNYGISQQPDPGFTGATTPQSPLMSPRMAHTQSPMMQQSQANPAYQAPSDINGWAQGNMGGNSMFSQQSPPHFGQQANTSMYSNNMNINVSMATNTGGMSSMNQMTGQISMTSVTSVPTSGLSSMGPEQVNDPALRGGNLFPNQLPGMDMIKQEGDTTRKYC

[10] = molecular target: Troponin, cardiac muscle (Homo sapiens, UniProt P19429+P45379+P63316); assay: Fluorescence-based biochemical high throughput dose response assay for activators of the calcium sensitivity of cardiac Regulated Thin Filaments (RTF). [Related pubchem assays (depositor defined):AID493008, AID493018, AID504382, AID504383]; format: protein-complex assay
[11] = molecular target: ATP-dependent molecular chaperone HSP82 (Candida albicans (strain WO-1) (Yeast), UniProt C4YTQ8); assay: loss of DOC-induced GRE-beta-galactosidase reporter signal, dose response, Hsp90 inhibitor project, S. cerevisiae, luminescence (AID 2400); format: functional, cell-based;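 note: beta-galactosidase luminescence from glucocorticoid response element reporter as proxy for Hsp90 function; inhibitor potency where signal loss means Hsp90 inhibition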
ATP-dependent molecular chaperone HSP82, sequence (C4YTQ8 whole entry): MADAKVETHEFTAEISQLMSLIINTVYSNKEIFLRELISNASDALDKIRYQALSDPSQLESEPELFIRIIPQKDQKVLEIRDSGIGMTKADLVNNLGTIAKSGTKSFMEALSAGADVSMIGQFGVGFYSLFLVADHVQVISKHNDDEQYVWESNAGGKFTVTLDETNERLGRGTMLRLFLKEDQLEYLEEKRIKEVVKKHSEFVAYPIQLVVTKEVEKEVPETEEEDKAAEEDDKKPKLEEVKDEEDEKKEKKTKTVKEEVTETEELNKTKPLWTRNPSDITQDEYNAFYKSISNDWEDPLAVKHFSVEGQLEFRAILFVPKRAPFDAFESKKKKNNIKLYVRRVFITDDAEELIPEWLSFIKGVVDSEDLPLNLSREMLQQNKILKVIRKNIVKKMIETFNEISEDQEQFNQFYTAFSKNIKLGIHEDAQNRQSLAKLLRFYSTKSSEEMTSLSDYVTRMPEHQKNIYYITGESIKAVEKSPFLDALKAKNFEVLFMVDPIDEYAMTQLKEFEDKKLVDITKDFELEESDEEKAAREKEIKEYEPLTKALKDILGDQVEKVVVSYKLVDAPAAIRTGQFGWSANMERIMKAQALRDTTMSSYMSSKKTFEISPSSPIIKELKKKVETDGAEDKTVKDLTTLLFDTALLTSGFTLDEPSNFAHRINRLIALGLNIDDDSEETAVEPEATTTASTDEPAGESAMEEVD

[12] = test system: Escherichia coli; assay: microbe, parasite or virus in culture

| SMILES | EC50 [4] | EC50 [7] | EC50 [8] | EC50 [11] | other results |
| --- | --- | --- | --- | --- | --- |
| Cc1ccc2[nH]c(SC(C(=O)Nc3ccc(F)cc3)c3ccccc3)nc2c1 (stereo unspecified) | – | – | – | – | EC50 [1]: > 92.5 µM (inactive); EC50 [2]: > 92.5 µM (inactive); EC50 [3]: > 92.5 µM (inactive) |
| Cc1c(O)c2c3c(cccc3c1O)C(=O)N(c1ccccc1)C2=O | > 150 µM (inactive) | 0.492 µM (active) | > 180 µM (inactive) | 82.8 µM (active) | EC50 [5]: > 79.4 µM (inactive); EC50 [6]: > 79.4 µM (not active); EC50 [9]: > 79.4 µM (not active); EC50 [10]: 2.9 µM (active) |
| CCCCCCSc1nnc2nc(O)cc(N)n12 | 79.9 µM (active) | 0.52 µM (active) | > 180 µM (inactive) | > 150 µM (inactive) | – |
| CC1CN(S(=O)(=O)c2ccc(C(=O)Nc3ccccc3F)cc2)CC(C)O1 (stereo unspecified) | – | – | – | – | AC50 [12]: 25.1 µM (active) |
